Structures can show the parent of a compound that is named as a salt.
Target: H+/K+-ATPase (rabbit gastric mucosal microsomes) (Oryctolagus cuniculus (Rabbit), UniProt P27112)
Test: In vitro screening test of H+/K+-ATPase inhibition (malachite green)
Assay type: biochemical
Conditions: pH 6.5, 37° C. 30 min, read-out: IC50, inhibitory effect on H+/K+-ATPase activity
From the text: This test example evaluates the inhibitory effects of the compounds of the present invention on the activity of H+/K+-ATPase by an in vitro screening test, and expresses them with the IC50 values of the compounds (obtained by calculating the inhibition rates at different concentrations).
• Compound solutions: The products (i.e., the compounds or the hydrochloride salt of compounds) obtained in the foregoing preparation examples of the present invention were each independently dissolved in DMSO to form solutions at suitable concentrations; • Buffer I: 50 mmol/L HEPEs-Tris, pH=6.5, 5 mmol/L magnesium chloride, […] valinomycin (J&K Scientific Ltd., goods No.: 227304); • Buffer II: 50 mmol/L HEPEs-Tris, pH=6.5, 5 mmol/L magnesium chloride, […] valinomycin, 5 mmol/L potassium chloride; • 5-adenosine triphosphate (ATP, Sigma-Aldrich, goods No.: A2383) solution: Dilute ATP with buffer I to 5 mM; • Malachite green solution: Dissolve 0.12 wt % malachite green (J&K Scientific Ltd., goods No.: 913120) in 2.5 mol/L sulfuric acid, 7.5 wt % ammonium molybdate (J&K Scientific Ltd., goods No.: 128321) and 11% Tween 20(V/V). During use, sulfuric acid, ammonium molybdate and Tween 20 are mixed in a ratio of 100:25:2; • Rabbit gastric mucosal microsomes (rich in H+/K+-ATPase, self-extracted), extracted by sucrose gradient centrifugation: The rabbit stomach was washed with tap water and 3M NaCl solution, respectively, and then the surface water was removed with filter paper. A pre-cooled homogenization buffer (4 ml/g tissue) was added and homogenized for 2-5 min in a tissue homogenizer. After the homogenizing, if there are large tissue particles, they can be removed by centrifugation (600 g, 10 min). The supernatant was then transferred to a clean centrifuge tube and centrifuged at 20,000 g for 30 min, then the supernatant was transferred to a clean centrifuge tube and further centrifuged at 100,000 g for 90 min and the precipitate was collected; the precipitate was suspended in homogenate and blown evenly, and the protein concentration was measured by the Bradford's method and adjusted to 10 mg/ml; 7.5 wt % Ficoll's layering solution was added in equal proportions. After centrifugation at 100,000 g for 60 min, the middle layer (H^+/K^+-ATPase-enriched gastric membranes) was collected in a clean centrifuge tube, diluted with homogenate by 4-5 times, and then centrifuged at 100,000 g for another 90 min, and the precipitate was collected; the precipitate was suspended in homogenate and homogenized in a glass homogenizer, and the protein concentration was measured by the Bradford's method and adjusted to 22.5 mg/ml. It was frozen at −80° C. and stored for future use.
5 μL of rabbit gastric mucosal microsomes (H^+/K^+-ATPase) was added to 45 μL of buffer II, then 5 μL of compound solution was added, and then 5 μL of 5 mM ATP solution was added to start the reaction and pre-react at 37° C. for 30 min. 15 μL of malachite green solution was added to terminate the reaction, balancing was conducted at room temperature for 20 min, and read the optical absorbance at 620 nm.
Meanwhile, the reaction of the same volume was carried out without addition of potassium chloride as a background, which was subtracted when calculating enzymatic activity.

H+/K+-ATPase (rabbit gastric mucosal microsomes), sequence (P27112 whole entry): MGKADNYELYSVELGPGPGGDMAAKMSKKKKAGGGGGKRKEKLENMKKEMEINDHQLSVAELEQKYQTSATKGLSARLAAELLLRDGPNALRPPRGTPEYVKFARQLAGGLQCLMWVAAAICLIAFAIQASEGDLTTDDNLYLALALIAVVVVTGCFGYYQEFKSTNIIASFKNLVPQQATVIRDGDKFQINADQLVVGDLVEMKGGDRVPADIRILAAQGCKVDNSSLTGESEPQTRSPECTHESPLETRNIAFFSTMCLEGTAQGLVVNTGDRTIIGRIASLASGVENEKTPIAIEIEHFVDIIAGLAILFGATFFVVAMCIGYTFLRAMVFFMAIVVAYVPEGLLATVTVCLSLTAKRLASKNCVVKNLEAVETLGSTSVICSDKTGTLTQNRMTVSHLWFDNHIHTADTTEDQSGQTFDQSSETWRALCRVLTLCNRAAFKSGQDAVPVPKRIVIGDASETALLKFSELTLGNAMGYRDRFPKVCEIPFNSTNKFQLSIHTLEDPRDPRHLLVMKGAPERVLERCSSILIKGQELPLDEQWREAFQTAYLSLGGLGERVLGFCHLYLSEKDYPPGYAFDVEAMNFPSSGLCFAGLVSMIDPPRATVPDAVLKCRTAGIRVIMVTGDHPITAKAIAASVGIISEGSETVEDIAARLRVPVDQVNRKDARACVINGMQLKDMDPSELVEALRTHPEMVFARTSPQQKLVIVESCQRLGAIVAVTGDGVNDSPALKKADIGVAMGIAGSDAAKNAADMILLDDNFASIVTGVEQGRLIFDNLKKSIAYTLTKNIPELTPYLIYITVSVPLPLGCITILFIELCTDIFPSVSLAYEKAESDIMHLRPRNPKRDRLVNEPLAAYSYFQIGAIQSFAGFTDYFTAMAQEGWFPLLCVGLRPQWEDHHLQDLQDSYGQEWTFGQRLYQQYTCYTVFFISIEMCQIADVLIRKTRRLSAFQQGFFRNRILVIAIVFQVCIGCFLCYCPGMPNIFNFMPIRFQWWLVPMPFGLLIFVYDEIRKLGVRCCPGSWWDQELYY
H+/K+-ATPase (rabbit gastric mucosal microsomes), sequence (P18597 whole entry partner): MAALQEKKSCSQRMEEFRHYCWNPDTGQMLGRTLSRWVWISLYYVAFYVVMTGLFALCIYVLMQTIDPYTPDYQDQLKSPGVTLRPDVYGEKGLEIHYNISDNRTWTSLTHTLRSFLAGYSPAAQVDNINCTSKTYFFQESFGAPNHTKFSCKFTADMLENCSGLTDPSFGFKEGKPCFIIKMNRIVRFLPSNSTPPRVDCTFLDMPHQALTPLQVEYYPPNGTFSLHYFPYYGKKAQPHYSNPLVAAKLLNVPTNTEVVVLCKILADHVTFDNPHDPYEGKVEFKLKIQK

Compound	IC50 [nM]
CNCc1cc(-c2ccc(OCc3cc(F)ccc3F)cc2F)n(S(=O)(=O)c2cc(F)cc(F)c2)c1 [Compound 80]	65.9
CNCc1cc(-c2ccc(OCc3ccccc3OC)cc2F)n(S(=O)(=O)c2cccnc2)c1 [Compound 75]	36.6
CNCc1cc(-c2ccc(OCC3CCOCC3)cc2F)n(S(=O)(=O)c2ccc(C#N)cc2)c1 [Compound 29]	290
CNCc1cc(-c2ccc(OCC3CCOCC3)cc2F)n(S(=O)(=O)c2cccc(OCCF)c2)c1 [Compound 30]	474
CCCCCOc1cccc(S(=O)(=O)n2cc(CNC)cc2-c2ccc(OCC3CCCCC3)cc2F)c1 [Compound 36]	2270
CNCc1cc(-c2ccc(OCC3CCOCC3)cc2F)n(S(=O)(=O)c2ccc(C)c(F)c2)c1 [Compound 26]	202
CNCc1cc(-c2ccc(OC(C)C3CCOCC3)cc2F)n(S(=O)(=O)c2cccc(C(F)(F)F)c2)c1 (centres unmarked) [Compound 10]	55.3
CNCc1cn(S(=O)(=O)c2cccnc2)c(-c2ccc(OCC3CC3)cc2F)c1F [Compound 51]	35.2
CNCc1cc(-c2ccc(OCc3cccc4ccccc34)cc2F)n(S(=O)(=O)c2cccc(C#N)c2)c1 [Compound 63]	1060
CNCc1cc(-c2ccc(OCC(F)F)cc2F)n(S(=O)(=O)c2cccnc2)c1 [Compound 42]	401
CNCc1cc(-c2ccc(O[C@@H](C)c3c(Cl)ccc(F)c3Cl)cc2F)n(S(=O)(=O)c2cccnc2)c1 [Compound 66]	485
CNCc1cc(-c2ccc(OC(C)C3CCOCC3)cc2F)n(S(=O)(=O)c2ccc(F)cc2F)c1 (centres unmarked) [Compound 17]	265
CNCc1cc(-c2ccc(OC(C)c3cc(F)cc(F)c3)cc2F)n(S(=O)(=O)c2cccnc2)c1 (centres unmarked) [Compound 68]	41.4
CNCc1cc(-c2ccc(OCc3c(F)cccc3F)cc2F)n(S(=O)(=O)c2cccnc2)c1 [Compound 56]	13.3
CNCc1cc(-c2ccc(OCC3CCC3)cc2F)n(S(=O)(=O)c2cccnc2)c1 [Compound 2]	24.5
CNCc1cc(-c2ccc(OCC3CCN(C(C)=O)CC3)cc2F)n(S(=O)(=O)c2cccnc2)c1 [Compound 23]	908
CNCc1cc(-c2ccc(OC(C)C3CCOCC3)cc2F)n(S(=O)(=O)c2ccc(C)c(F)c2)c1 (centres unmarked) [Compound 11]	65.2
CNCc1cc(-c2ccc(OCC3CCOCC3)cc2F)n(S(=O)(=O)c2cc(F)cc(F)c2)c1 [Compound 27]	38.7
CNCc1cc(-c2ccc(OC(C)C3CCOCC3)cc2F)n(S(=O)(=O)c2cccc(OCCCCOC)c2)c1 (centres unmarked) [Compound 38]	199

Compound	IC50 [nM]
CNCc1cc(-c2ccc(OC)cc2F)n(S(=O)(=O)c2cccnc2)c1 [Compound 40]	123
CNCc1cc(-c2ccc(OC(C)C3CCOCC3)cc2F)n(S(=O)(=O)c2cccc(OCCOC)c2)c1 (centres unmarked) [Compound 14, 1-(5-(2-fluoro-4-(1-(tetrahydro-2H-pyran-4-yl)ethoxy)phenyl)-1-((3-(2-methoxyethoxy)phenyl)sulfonyl)-1H-pyrrol-3-yl)-N-methylmethylamine-hydrochloride]	443
CNCc1cc(-c2ccc(OCc3cc(F)ccc3F)cc2F)n(S(=O)(=O)c2cccc(OCCOC)c2)c1 [Compound 86]	34.4
CNCc1cc(-c2ccc(OCc3cc(F)ccc3F)cc2F)n(S(=O)(=O)c2cccc(F)c2)c1 [Compound 79]	55.3
CNCc1cc(-c2ccc(OC(C)c3c(F)cccc3F)cc2F)n(S(=O)(=O)c2cccc(OCC3CCC3)c2)c1 (centres unmarked) [Compound 83]	13300
CNCc1cc(-c2ccc(OC[C@@H]3COCCO3)cc2F)n(S(=O)(=O)c2cccnc2)c1 [Compound 1, (S)-1-(5-(4-((1,4-dioxane-2-yl)methoxy)-2-fluorophenyl)-1-(pyridine-3-ylsulfonyl)-1H-pyrrole-3-yl)-N-methyl methylamine hydrochloride]	585
CNCc1cc(-c2ccc(OCC(C)(C)C)cc2F)n(S(=O)(=O)c2cccnc2)c1 [Compound 45]	204
CNCc1cc(-c2ccc(OC(C)C3CCOCC3)cc2F)n(S(=O)(=O)c2cc(F)cc(F)c2)c1 (centres unmarked) [Compound 9]	25.4
CNCc1cc(-c2ccc(OC(C)C3CCOCC3)cc2F)n(S(=O)(=O)c2ccc(C#N)cc2)c1 (centres unmarked) [Compound 18]	262
CNCc1cc(-c2ccc(OCC3CCOCC3)cc2F)n(S(=O)(=O)c2cccc(OCCCOC)c2)c1 [Compound 32]	822
CNCc1cc(-c2ccc(OC(C)c3c(F)cccc3F)cc2F)n(S(=O)(=O)c2cccc(C#N)c2)c1 (centres unmarked) [Compound 69]	114
CNCc1cc(-c2ccc(OC(C)c3c(F)cccc3F)cc2F)n(S(=O)(=O)c2cccc(OCCCOC)c2)c1 (centres unmarked) [Compound 88]	450
CNCc1cc(-c2ccc(OCC3CCOCC3)cc2F)n(S(=O)(=O)c2cccc(OCC3CCCC3)c2)c1 [Compound 34]	285
CNCc1cc(-c2ccc(OCC3CCCCC3)cc2F)n(S(=O)(=O)c2cccc(OCCF)c2)c1 [Compound 35]	8650
CNCc1cc(-c2ccc(OC[C@@H]3CO3)cc2F)n(S(=O)(=O)c2cccnc2)c1 [Compound 50]	114
CNCc1cc(-c2ccc(OC[C@@H]3C[C@@H]3F)cc2F)n(S(=O)(=O)c2cccnc2)c1 [Compound 53]	56.1
CNCc1cc(-c2ccc(OC(C)C3CCOCC3)cc2F)n(S(=O)(=O)c2cccc(OC)c2)c1 (centres unmarked) [Compound 15]	83.9
CCCCCOc1cccc(S(=O)(=O)n2cc(CNC)cc2-c2ccc(OCc3cc(F)ccc3F)cc2F)c1 [Compound 82]	3660
CNCc1cc(-c2ccc(OCC3CCCCO3)cc2F)n(S(=O)(=O)c2cccnc2)c1 (centres unmarked) [Compound 7]	254

Compound	IC50 [nM]
CNCc1cc(-c2ccc(OC[C@H]3CO3)cc2F)n(S(=O)(=O)c2cccnc2)c1 [Compound 49]	146
CNCc1cc(-c2ccc(OCCCOC)cc2F)n(S(=O)(=O)c2cccnc2)c1 [Compound 43]	482
CNCc1cc(-c2ccc(OCc3ncccc3F)cc2F)n(S(=O)(=O)c2cccnc2)c1 [Compound A6]	157
CNCc1cc(-c2ccc(OCc3cc(F)ccc3F)cc2F)n(S(=O)(=O)c2ccc(C)c(F)c2)c1 [Compound 81]	56.6
CNCc1cc(-c2ccc(OCc3cccc4c3OCO4)cc2F)n(S(=O)(=O)c2cccc(OCCCCOC)c2)c1 [Compound 93]	12400
CNCc1cc(-c2ccc(OCc3cc(F)ccc3F)cc2F)n(S(=O)(=O)c2cccc(C(F)(F)F)c2)c1 [Compound 98]	485
CNCc1cc(-c2ccc(OCC(C)(C)O)cc2F)n(S(=O)(=O)c2cccnc2)c1 [Compound 52]	372
CNCc1cc(-c2ccc(OC(C)C3CCOCC3)cc2F)n(S(=O)(=O)c2c(F)cccc2F)c1 (centres unmarked) [Compound 16]	253
CNCc1cc(-c2ccc(OCC3CCN(C)CC3)cc2F)n(S(=O)(=O)c2cccnc2)c1 [Compound 22]	458
CNCc1cc(-c2ccc(OC(C)C3CCCCC3)cc2F)n(S(=O)(=O)c2cccnc2)c1 (centres unmarked) [Compound 20]	294
CNCc1cc(-c2ccc(OCC3CCOCC3)cc2F)n(S(=O)(=O)c2cccc(C(F)(F)F)c2)c1 [Compound 39]	34.6
CNCc1cc(-c2ccc(OCc3cccc4c3OCO4)cc2F)n(S(=O)(=O)c2cccnc2)c1 [Compound 94]	48.4
CNCc1cc(-c2ccc(OC(C)C3CCOCC3)c(F)c2)n(S(=O)(=O)c2cccnc2)c1 (centres unmarked) [Compound 47]	247
CNCc1cc(-c2ccc(OCc3cc(F)ccc3F)cc2F)n(S(=O)(=O)c2cccc(OCC3CCCC3)c2)c1 [Compound 84]	109
CNCc1cc(-c2ccc(OCc3ccccc3OC(F)(F)F)cc2F)n(S(=O)(=O)c2cccnc2)c1 [Compound 60]	186
CNCc1cc(-c2ccc(OCc3ccsc3)cc2F)n(S(=O)(=O)c2cccnc2)c1 [Compound 77]	120
CNCc1cc(-c2ccc(OCc3ccncc3)cc2F)n(S(=O)(=O)c2cccnc2)c1 [Compound 74]	564
CNCc1cc(-c2ccc(OCC3CCC(F)(F)CC3)cc2F)n(S(=O)(=O)c2cccnc2)c1 [Compound 5]	82.4
